Results: patent US20250388571A1, “AMP-ACTIVATED PROTEIN KINASE MODULATOR COMPOUNDS AND USES THEREOF” (Biolexis Therapeutics, Inc., priority 2024, published 2025)

Legend:
Format in all cases: cell-based
[1] = tested on: human skeletal muscle cells (HSKM cells); test: Glucose uptake assay, human skeletal muscle cells; conditions: 100 μM to 0.005 μM, 1 hour
Description: FIGS. 1-4 show results for cells treated with differing doses of representative compounds of Structure (I) (i.e., compound I-11 in FIG. 1 and compound I-7 in FIG. 2) as well reference compounds (i.e., PF-06409577 in FIG. 3 and MK-8722 in FIG. 4). […] Cells were starved for 3 hours in high glucose DMEM without FBS, then treated with indicated compounds in DMEM without FBS/glucose for 1 hour, and glucose uptake was detected using an uptake glucose kit (Promega). The bars show (from left to right) concentrations of 100 μM, 33 μM, 11 μM, 3.7 μM, 1.23 μM, 0.41 μM, 0.14 μM, 0.045 μM, 0.015 μM, 0.005 μM, 0 μM, and insulin.
(§1) Human skeletal myoblasts were obtained (Thermofisher; BYU) and cultured in DMEM/F12 medium with 10% FBS. For differentiation, 2% horse serum low glucose DMEM medium was employed for 72 hours. Human cardiomyocytes cells (HCM cells; Promocell) were cultured in myocyte growth medium (Promocell). Human preadipocyte HWP-c cells (Promocell) were obtained from upper arm of diabetic II donor. Human preadipocyte HWP-c cells (Promocell) were obtained from abdomen of diabetic II donor. For differentiating human preadipocytes, cells were cultured in preadipocyte growth medium to total confluency stage. The growth medium was replaced with preadipocyte differentiation medium for 72 hours, then changed to PromoCell adipocyte nutrition medium to complete the differentiation process. THLE-2 cells were cultured in BEGM from Lonza/Clonetics Corporation, Walkersville, MD 21793 (BEGM Bullet Kit; CC3170). HepG2, L6 and C2Cl2 cells were cultured in EMEM medium.
(§2) After differentiation myoblasts, preadipocyte cells were starved by removing the medium and adding 100 μL DMEM without serum. The medium was then replaced with 100 μL DMEM±1 μM insulin at indicated concentration of representative compounds without serum or glucose. The cells were then incubated for 1 hour at 37° C. in 5% CO2. The cells were then removed from the medium and 50 μL of 0.1 mM 2DG in PBS was added. Cells were incubated for 30 minutes at 25° C. 25 μL of Stop Buffer was added and samples were mixed. 25 μL of Neutralization Buffer was then added and mixed. 100 μL of 2DG6P Detection Reagent was then added and mixed. Samples were then incubated for 1 hour at 25° C. Luminescence was then recorded with 0.3-1 second integration on a luminometer.

[2] = tested on: AMPK signal pathway in human cardiac myocytes (HCM); test: Western blot assay, human cardiomyocytes
[3] = tested on: human cardiomyocyte cells (HCM); test: Glucose uptake assay, human cardiomyocyte cells; conditions: donor not stated
Description: FIGS. 17-19 show results for glucose update assays in human cardiomyocyte cells (“HCM”-healthy donor) (Promocell, cat. no. C-12810) when treated with compound I-11 (FIG. 17), compound I-7 (FIG. 18), and PF-06409577 (FIG. 19). After recovered HCM cells for 4 days, cells were starved for 3 hours in high glucose DMEM without FBS, treated with the components noted above in DMEM without FBS/glucose for 1 hour, and glucose uptake was detected using a glucose uptake kit (Promega). […] The bars show (from left to right) concentrations of 100 μM, 33 μM, 11 μM, 3.7 μM, 1.23 μM, 0.41 μM, 0.14 μM, 0.045 μM, 0.015 μM, 0.005 μM, 0 μM, and insulin.
FIGS. 20-22 show results for glucose update assays in human cardiomyocyte cells (“HCM”-diabetic donor) (Promocell, cat. no. C-12810) when treated with compound I-11 (FIG. 20), compound I-7 (FIG. 21), and PF-06409577 (FIG. 22). After recovered HCM cells for 4 days, cells were starved for 3 hours in high glucose DMEM without FBS, treated with the components noted above in DMEM without FBS/glucose for 1 hour, and glucose uptake was detected using a glucose uptake kit (Promega). […] The bars show (from left to right) concentrations of 100 μM, 33 μM, 11 μM, 3.7 μM, 1.23 μM, 0.41 μM, 0.14 μM, 0.045 μM, 0.015 μM, 0.005 μM, 0 μM, and insulin.
as §1, §2

Structure (SMILES): O[C@@H]1CO[C@H]2[C@@H]1OC[C@H]2Oc1nc2nc(-c3ccc(-c4ccccc4)cc3)c(Cl)cc2[nH]1 [MK-8722, reference compound]
- dose dependence of glucose uptake (printed: activation of insulin / AMPK activation) [1]: highly variable
- p-ACC/p-AMPK and AMPKα2β2γ3 expression [2]: may be able to increase
- glucose uptake [3]: could increase glucose uptake
